SMILES strings stand for the structures.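 Assay format: 96-well plates, 48-hour exposure. TGI: concentration producing complete growth inhibition.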

Among the test systems are ACHN renal; COLO 205 colon; LOX IMVI melanoma; SNB-19 CNS; KM12 colon; A549 NSCLC; NCI-H460 lung; OVCAR-5 ovarian.
Assay in all cases: NCI anticancer screen, dose series, 48 h

Consider `C=C1c2[nH]c3c([N+](=O)[O-])c(OC)ccc3c2CCN1C(C)=O`, for which the TGI in the experiment on ACHN renal, in the experiment on COLO 205 colon, in the experiment with LOX IMVI melanoma, in the experiment on SNB-19 CNS, in the experiment with KM12 colon and with A549 NSCLC was > 100 µM in each case. The TGI in the experiment with NCI-H460 lung and in the experiment on OVCAR-5 ovarian was > 100 µM each time.

For `C/C(CC(=O)Nc1ccc(Cl)cc1)=N\NC(N)=S`, the TGI with ACHN renal, in the experiment on COLO 205 colon, in the experiment on LOX IMVI melanoma, in the experiment with KM12 colon, with A549 NSCLC and with NCI-H460 lung was > 100 µM in each case. The TGI in the experiment with OVCAR-5 ovarian is > 100 µM.

Regarding `C[C@]12CCC3[C@@H](CC[C@@H]4c5nonc5CC[C@]34C)C1C/C(=N/O)C2=O` (stereo partly drawn), the TGI in the experiment with ACHN renal, in the experiment with COLO 205 colon, in the experiment on LOX IMVI melanoma, with SNB-19 CNS, with KM12 colon and in the experiment on A549 NSCLC was > 100 µM each time. For the same molecule, the TGI in the experiment with NCI-H460 lung and in the experiment on OVCAR-5 ovarian was > 100 µM in each case.

On to `CCOC(=O)NC(=O)c1cn(CCCCCCOC(=O)NCCCCCCNC(=O)OCCCCCCn2cc(C(=O)NC(=O)OCC)c(=O)[nH]c2=O)c(=O)[nH]c1=O`, for which the TGI with ACHN renal, with COLO 205 colon, in the experiment with LOX IMVI melanoma, in the experiment with SNB-19 CNS, with KM12 colon and in the experiment on A549 NSCLC was > 100 µM in each case. Moreover, in the experiment with NCI-H460 lung, the TGI was > 100 µM.

Take `CN(C(=O)c1ccco1)C(=S)N1CCN(c2ccccc2)CC1`: the TGI in the experiment on ACHN renal, with COLO 205 colon, in the experiment on LOX IMVI melanoma, in the experiment on SNB-19 CNS, in the experiment on KM12 colon and with A549 NSCLC was > 100 µM throughout. For the same molecule, the TGI with NCI-H460 lung and with OVCAR-5 ovarian was > 100 µM in each case.

As for `O=C1CC(S(=O)(=O)O)C=C1Nc1cccc(Cl)c1` (stereo not drawn), the TGI in the experiment on ACHN renal, in the experiment on COLO 205 colon, in the experiment with LOX IMVI melanoma, with SNB-19 CNS, in the experiment with KM12 colon and in the experiment with A549 NSCLC was > 100 µM in each case. Also, the TGI in the experiment on NCI-H460 lung and in the experiment on OVCAR-5 ovarian was > 100 µM throughout.

`Cc1ccc(N2C(=O)C3C=CC(n4[nH]c(=O)n(Cc5ccccc5)c4=O)CC3C2=O)cc1` (stereo not drawn): the TGI in the experiment on ACHN renal, with COLO 205 colon, in the experiment with LOX IMVI melanoma, with SNB-19 CNS, in the experiment on KM12 colon and with A549 NSCLC was > 100 µM throughout. Also, the TGI in the experiment on NCI-H460 lung and in the experiment with OVCAR-5 ovarian was > 100 µM each time.

As for `O=CC1CCCc2ccccc21` (stereo not drawn), the TGI with ACHN renal was > 100 µM; with COLO 205 colon it was > 61.4 µM; in the experiment on LOX IMVI melanoma, > 62.4 µM; with SNB-19 CNS, > 100 µM; with KM12 colon it was > 100 µM; in the experiment with A549 NSCLC, > 100 µM. Moreover, the TGI in the experiment with NCI-H460 lung and in the experiment with OVCAR-5 ovarian was > 100 µM in each case.

For `COC(=O)c1cc(Cl)ccc1NC(=O)c1ccc([N+](=O)[O-])cc1`, the TGI was 26.5 µM in the experiment with ACHN renal; 51.7 µM in the experiment with KM12 colon; 58.2 µM in the experiment on A549 NSCLC; > 100 µM in the experiment with NCI-H460 lung; > 100 µM in the experiment on OVCAR-5 ovarian.

Turning to `COc1ccc(/C=N/N=C(\N)NO)c(OC)c1`, the TGI in the experiment with ACHN renal, in the experiment with COLO 205 colon, in the experiment on LOX IMVI melanoma, in the experiment on SNB-19 CNS, in the experiment with KM12 colon and in the experiment with A549 NSCLC was > 100 µM in each case. Also, the TGI with OVCAR-5 ovarian worked out at 36.1 µM.

Regarding `O=S1(=O)OCCOS(=O)(=O)C1Cc1ccccc1`, the TGI in the experiment with ACHN renal is > 100 µM; in the experiment on COLO 205 colon, 34.8 µM; in the experiment with LOX IMVI melanoma, > 100 µM; with SNB-19 CNS, > 100 µM; in the experiment on KM12 colon it was > 100 µM; in the experiment on A549 NSCLC, > 100 µM. For the same molecule, the TGI in the experiment with NCI-H460 lung and with OVCAR-5 ovarian was > 100 µM throughout.

In the case of `COC(=O)C1=C(c2cc(OC)c(OC)c(OC)c2)OC(c2ccc(OC)c(OC)c2)C1` (stereo not drawn), the TGI with ACHN renal was > 100 µM; with COLO 205 colon, 42.6 µM; in the experiment on LOX IMVI melanoma it was > 100 µM; in the experiment with KM12 colon, > 100 µM; with A549 NSCLC, > 100 µM; with NCI-H460 lung, > 100 µM. In the experiment with OVCAR-5 ovarian, the TGI was > 100 µM.

Consider `COc1ccc(C(=O)C(c2ccc(OC)cc2)C2(O)C(=O)Nc3c2ccc(Cl)c3C)cc1` (stereo not drawn), for which the TGI in the experiment with ACHN renal, in the experiment on COLO 205 colon, in the experiment with LOX IMVI melanoma, with SNB-19 CNS, in the experiment on KM12 colon and in the experiment on A549 NSCLC was > 100 µM throughout. Moreover, the TGI in the experiment with NCI-H460 lung and with OVCAR-5 ovarian was > 100 µM each time.

As to `C1=C2/CC[C@H](Sc3ccccc3)[C@H]2C2(CCCCC/1)OCCO2`, the TGI with ACHN renal is > 100 µM; in the experiment on COLO 205 colon, 38.2 µM; in the experiment on LOX IMVI melanoma, 39.5 µM; with SNB-19 CNS, > 100 µM; in the experiment on KM12 colon it was > 100 µM; with A549 NSCLC, > 100 µM. Moreover, the TGI with NCI-H460 lung is > 100 µM; in the experiment on OVCAR-5 ovarian, 79.6 µM.

As to `N#CC(c1nc2ccccc2nc1Cl)S(=O)(=O)c1ccccc1` (stereo not drawn), the TGI in the experiment on ACHN renal, in the experiment on COLO 205 colon, in the experiment with LOX IMVI melanoma, in the experiment with SNB-19 CNS, in the experiment with KM12 colon and in the experiment with A549 NSCLC was > 100 µM in each case. The TGI in the experiment with NCI-H460 lung and in the experiment with OVCAR-5 ovarian was > 100 µM in each case.

As for `Cc1[nH]c2ccccc2c1C1Cc2ccccc2N1C(=O)/C=C/C(=O)O` (stereo not drawn), the TGI in the experiment on ACHN renal, in the experiment on COLO 205 colon, with LOX IMVI melanoma, with SNB-19 CNS, with KM12 colon and with A549 NSCLC was > 100 µM throughout. The values for the TGI with NCI-H460 lung and in the experiment on OVCAR-5 ovarian were 61.3 µM and > 100 µM, respectively.

Turning to `COc1ccc2ccccc2c1C1OC(=O)c2ccccc21` (stereo not drawn), the TGI in the experiment on ACHN renal, with COLO 205 colon, in the experiment on LOX IMVI melanoma, with SNB-19 CNS, in the experiment with KM12 colon and in the experiment with A549 NSCLC was > 100 µM throughout. The TGI in the experiment with OVCAR-5 ovarian was > 100 µM.

(Values after PubChem BioAssay (NCI).)
